Reference: patent publication US12162892B2, “CD16a binding agents and uses thereof” (KLEO PHARMACEUTICALS, INC., priority 2018, dated 2024)
Values joined by “and” are separate entries in the source; they are usually repeats but may differ in a detail not shown here. Equal entries are not always repeated.

How the values were obtained:
Format in all cases: binding
[1] = target: T1, CD16a158F (Homo sapiens, UniProt P08637); test: Biotinylated Ligand ELISA Assay; set-up: purchased Acro Biosystems CDA-H82E8; conditions: Biotinylated CD16a protein at 10 nM
T1 sequence (P08637 17-208 limits assumed): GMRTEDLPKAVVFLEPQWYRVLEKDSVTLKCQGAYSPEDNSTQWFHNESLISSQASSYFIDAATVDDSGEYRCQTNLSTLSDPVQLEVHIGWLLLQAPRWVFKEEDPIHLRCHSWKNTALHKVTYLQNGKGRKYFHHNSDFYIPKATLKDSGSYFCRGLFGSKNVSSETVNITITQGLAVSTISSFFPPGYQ
Procedure: (§1) Coat ELISA plates (Costar 3922) using Neutravidin (Thermo 31000) at 5 μg/ml (100 μl/well) for 1 hour at 37° C. Plates were washed 4 times with PBST (PBS, 0.05% Tween 20-200 μl, 1 minute/wash) then blocked using 200 μl 5% bovine serum albumin (BSA, Heat Shock, Fraction V-American Bio AB01088-00100) in PBST for 2 hours at 25° C. with moderate shaking. BSA was removed and plates were washed. Biotinylated ligands diluted in PBSTB (PBST+0.1% BSA) were then added (100 μl/well) and incubated for 1 hour at 25° C. with gentle shaking. Ligands were removed and plates were washed. Any remaining unoccupied neutravidin binding sites were blocked by adding 100 μM Biotin (Fisher BP232-1) (100 μl/well) and incubated for 1 hour at 25° C. with gentle shaking. Plates were then washed. […] Protein was removed and plates were washed. Streptavidin-HRP (Invitrogen 434323) diluted 1:5000 in PBSTB was added (100 μl/well) and incubated for 1 hour at 25° C. with gentle shaking. Wash plates. Substrate (Super Signal ELISA Pico Chemiluminescent Substrate-Thermo 37069) was added (100 μl/well) and plates were incubated for 5 minutes at 25° C. with gentle shaking. Luminescence was then measured on the Biotek Synergy H1 microplate reader.

[2] = target: CD3ed (Homo sapiens, UniProt P04234+P07766); test: Biotin ELISA, interaction with various receptors (Example 55); conditions: three replicate values per compound
Chain of CD3ed (P07766 23-126 limits assumed): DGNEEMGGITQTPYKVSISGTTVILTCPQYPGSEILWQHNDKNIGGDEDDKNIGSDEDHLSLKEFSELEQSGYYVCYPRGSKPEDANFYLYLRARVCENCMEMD
Chain of CD3ed (P04234 22-105 limits assumed): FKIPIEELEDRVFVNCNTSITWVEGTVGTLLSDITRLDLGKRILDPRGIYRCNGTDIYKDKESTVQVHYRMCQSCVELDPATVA
Procedure: as §1
(§2) Using similar methods as Examples 47 or 53, interactions with a number of receptors were measured. In some embodiments, “stock” is antibody only, and “control” is an antibody that went through the same procedure except using DMSO only as opposed to a compound. When contacted with targeting moieties such as antibodies in the Examples, compounds, e.g., I-95, I-96, etc. can react through their reactive groups

[3] = target: CD64 (Homo sapiens, UniProt P12314); test: as above; conditions: three replicate values per compound
Chain of CD64 (P12314 16-374): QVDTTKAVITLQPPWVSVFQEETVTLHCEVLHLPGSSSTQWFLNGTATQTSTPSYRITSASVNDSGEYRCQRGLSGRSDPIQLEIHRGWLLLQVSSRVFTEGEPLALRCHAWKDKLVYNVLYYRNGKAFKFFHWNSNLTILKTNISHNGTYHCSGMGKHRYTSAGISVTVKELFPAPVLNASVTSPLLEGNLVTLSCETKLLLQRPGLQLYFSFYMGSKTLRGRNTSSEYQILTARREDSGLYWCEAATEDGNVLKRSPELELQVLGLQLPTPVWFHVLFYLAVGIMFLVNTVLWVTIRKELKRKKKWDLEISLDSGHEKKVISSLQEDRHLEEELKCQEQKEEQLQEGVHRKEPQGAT
Procedure: as §1, §2

[4] = system: CD32a-R167; test: as above; conditions: three replicate values per compound
Procedure: as §1, §2

[5] = target: T1, CD16a158F; test: as above; conditions: three replicate values per compound
Procedure: as §1, §2

[6] = target: T2, CD32a H167 (Homo sapiens, UniProt P12318); test: as above; conditions: three replicate values per compound
T2 sequence (P12318 36-218 limits assumed): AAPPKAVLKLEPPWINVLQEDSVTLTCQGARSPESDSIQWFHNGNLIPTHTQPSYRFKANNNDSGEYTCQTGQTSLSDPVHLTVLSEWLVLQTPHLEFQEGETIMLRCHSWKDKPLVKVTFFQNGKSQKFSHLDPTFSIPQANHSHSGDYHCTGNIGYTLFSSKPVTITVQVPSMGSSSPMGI
Procedure: as §1, §2

[7] = target: T3, CD16a158V (Homo sapiens, UniProt P08637, F176V); test: as above; conditions: three replicate values per compound
T3 sequence (P08637 17-208 F176V): as the sequence (P08637 17-208 limits assumed) above, with F160V counted along it
Procedure: as §1, §2

[8] = target: T4, CD32b (Homo sapiens, UniProt P31994); test: as above; conditions: three replicate values per compound
T4 sequence (P31994 43-310): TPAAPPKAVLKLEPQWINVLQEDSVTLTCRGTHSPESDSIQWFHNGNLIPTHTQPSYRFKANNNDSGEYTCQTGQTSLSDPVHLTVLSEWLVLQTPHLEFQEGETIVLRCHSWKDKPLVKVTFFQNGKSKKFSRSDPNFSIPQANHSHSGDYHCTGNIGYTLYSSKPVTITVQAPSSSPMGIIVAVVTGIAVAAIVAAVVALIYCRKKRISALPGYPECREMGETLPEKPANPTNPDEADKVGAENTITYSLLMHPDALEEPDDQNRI
Procedure: as §1, §2

[9] = target: T3, CD16a158V; test: Biotinylated Ligand ELISA Assay; conditions: Biotinylated CD16a protein at 10 nM
Procedure: as §1

[10] = Biotin ELISA, No Protein (Example 55); conditions: three replicate values per compound
Procedure: as §1, §2

Biotin ELISA Results CD3ed [2]	Biotin ELISA Results CD64 [3]	Biotin ELISA Results CD32a-R167 [4]	Biotin ELISA Results CD16a-158F [5]	Biotin ELISA Results CD32a-H167 [6]	Biotin ELISA Results CD16a-158V [7]	Biotin ELISA Results CD32b [8]	SMILES	Biotinylated Ligand ELISA-CD16a158F Binding (RLU) [1]	Biotinylated Ligand ELISA-CD16a158V Binding (RLU) [9]	Biotin ELISA Results No Protein [10]
7926 and 1921 and 46693*	43288 and 127129* and 49818	11818 and 37679* and 11737	34842 and 7323* and 23569	5263 and 6063 and 4354	3136 and 3515 and 1518	10786 and 29882* and 8282	O=C(CCCC[C@@H]1SC[C@@H]2NC(=O)N[C@@H]21)NCCOCCOCCOCCOCCOCCOCCOCCOCCn1cc(-c2ccc(NC(=O)N3CCC(N4CCN(Cc5ccccc5)C4=O)CC3)cc2)nn1 [Compound I-15, N-{4-[1-(26-{5-[(3aS,4S,6aR)-2-oxo-hexahydro-1H-thieno[3,4-d]imidazol-4-yl]pentanamido}-3,6,9,12,15,18,21,24-octaoxahexacosan-1-yl)-1H-1,2,3-triazol-4-yl]phenyl}-4-(3-benzyl-2-oxoimidazolidin-1-yl)piperidine-1-carboxamide]	B (a relative luminescence value (RLU) of 10,000-100,000)	B (a relative luminescence value (RLU) of 10,000-100,000)	3931 and 5958 and 23315*
1852 and 1310 and 797	40706 and 42386 and 41814	2048 and −50 and 349	−1097 and −1078 and −689	276 and 696 and −362	−544 and −988 and −964	2072 and 737 and 1622	O=C(CCCC[C@@H]1SC[C@@H]2NC(=O)N[C@@H]21)NCCOCCOCCOCCOCCOCCOCCOCCOCCn1cc(-c2ccc(OCC(=O)N3CCC(N4CC(=O)N(c5ccccc5)C4=O)CC3)cc2)nn1 [Compound I-19, 5-[(3aS,4S,6aR)-2-oxo-hexahydro-1H-thieno[3,4-d]imidazol-4-yl]-N-{26-[4-(4-{2-[4-(2,4-dioxo-3-phenylimidazolidin-1-yl)piperidin-1-yl]-2-oxoethoxy}phenyl)-1H-1,2,3-triazol-1-yl]-3,6,9,12,15,18,21,24-octaoxahexacosan-1-yl}pentanamide]	D (a relative luminescence value (RLU) of 1-1,000)	D (a relative luminescence value (RLU) of 1-1,000)	1266 and 122 and 3990
